# Several values for one entry are separate records, joined by “and”; a condition that tells them apart may be missing. Equal entries are not always repeated. Entries after “also recorded” stand apart in the source; their conditions may differ. Where two headings read alike, the source gives them in different places.
# Tests used:
# [1] = Body weight of treated mice; type: in vivo; conditions: high dose, in one week
# Procedure: In humans, the chemotherapy 5-Fluorouracil is a backbone of colon cancer therapy, however, has significant toxic side effects. Mice tolerate a higher dose of 5-Fluorouracil compared to humans on a per weight per day basis. When a high dose of 5-Fluorouracil is administered to mice, they lose 20% of their total weight in one week (FIG. 12A). […] This is in direct contrast to the improved inhibition of tumor burden and treatment effect identified by using the nanoparticle formulation of LY2090314 (FIGS. 5A-5C).
# wildtype colon organoids = test: Wildtype colon organoid growth, resazurin viability assay; type: cell-based, Mouse and human; conditions: for ranking by on-target vs off-target function in organoids: order: LY2090314, SAR502250, A-1070722, CHIR 99021; for growth of wildtype colon organoids: resazurin assay
# Procedure: (§1) Mouse and human organoids were grown in standard organoid culture systems using MATRIGEL® and Advanced DMEM/F12 media with 5% fetal bovine serum, and GLUTAMAX® supplementation. Dose responses of the labeled drugs were applied to the organoid cultures and resazurin viability assays were performed after 4 days of culture. Relative growth is assessed by conversion of resazurin to resorufin and is shown on the y axis.
# To further generalize the approach using different GSK3 inhibitors, two other compounds were identified which via GSK3 inhibition, induce Wnt responses in colon organoids. […] Using primary wildtype colon crypts, the capacity of SAR502250 to promote wildtype organoid growth was evaluated using a resazurin metabolic based assay.
# Wnt signaling = test: TOP-TdTomato Wnt reporter in wildtype organoids; type: cell-based
# [2] = tested on: organoids that harbor an APC mutation; test: Growth of APC-mutant colon cancer organoid genotypes, resazurin assay; type: cell-based; conditions: at all concentrations; also with added KRAS, p53, SMAD4 mutations
# Procedure: as §1
# Same as FIG. 1, but the genotype of the organoids tested vary instead of being wildtype, they contain the mutations as indicated in the figure description.
# [3] = tested on: Human colon cancers (colon tumor organoid lines); test: Human colon tumor organoid dose response, resazurin; type: cell-based; conditions: every human colon cancer, 4 days of culture
# Procedure: Human colon cancers were collected from the operating room at MGH. Colon tumor organoids lines were generated from the resections and maintained in standard colon organoid culture conditions. Dose responses of LY2090314 were applied to the various human colon cancers and resazurin cell number counts were performed after 4 days of culture.
# [4] = tested on: colon cancer organoids (AKPVT); test: AKPVT colon cancer organoid growth, resazurin based assay; type: cell-based, mouse; conditions: for inhibition of AKPVT colon cancer organoid growth: single agent
# Procedure: FIG. 14 is a two-dimensional dose response of RSPO1 by LY2090314 on inhibiting colon cancer organoid growth (AKPVT), assessed by resazurin based assay.
# Viability decrease was assessed using a resazurin based metabolic/proliferation assay.
# colon cancer organoids = test: LY2090314 together with 5-FU on colon cancer organoids; type: cell-based; conditions: combination with 5-FU
# Excerpt: LY2090314 was used together with 5-FU on colon cancer organoids. […] The cell killing or tumor inhibition effect of LY2090314 is additive with 5-FU. Thus, LY2090314 can be added to many of the existing chemotherapy regimens for colon cancer with improved outcomes.
# [5] = in DMSO; cited from earlier work
# β-catenin = conditions: 20 nM; cited from earlier work
# GSK3 = conditions: cited from earlier work
# melanoma cell lines = conditions: cited from earlier work
# [6] = rats; cited from earlier work
# [7] = dogs; cited from earlier work
# [8] = humans; cited from earlier work
# [9] = cited from earlier work
# A375 xenograft = conditions: 25 mg/kg Q3D, i.v., cited from earlier work
molecule,measurement,setting,value
O=c1[nH]cc(F)c(=O)[nH]1 [5-Fluorouracil],loss of total weight,[1],20%
COc1ccc2c(NC(=O)Nc3cccc(C(F)(F)F)n3)ccnc2c1 [A-1070722],ranking by on-target vs off-target function in organoids,wildtype colon organoids,best drugs in decreasing order of efficacy
CN1CCN(S(=O)(=O)c2ccc(-c3cnc(N)c(C(=O)Nc4cccnc4)n3)cc2)CC1 [AZD2858],growth of wildtype colon organoids,wildtype colon organoids,capacity to grow normal wildtype organoids; also recorded: clear low nanomolar capacity to support normal colon organoid growth
same,"Wnt response, TOP-TdTomato reporter activity",Wnt signaling,promote a Wnt response; also recorded: confirmed to be on target Wnt signaling
Cc1c[nH]c(-c2cnc(NCCNc3ccc(C#N)cn3)nc2-c2ccc(Cl)cc2Cl)n1 [CHIR 99021],ranking by on-target vs off-target function in organoids,wildtype colon organoids,best drugs in decreasing order of efficacy
O=C1NC(=O)C(c2cnc3ccccn23)=C1c1cn2c3c(cc(F)cc13)CN(C(=O)N1CCCCC1)CC2 [LY2090314],ranking by on-target vs off-target function in organoids,wildtype colon organoids,best drugs in decreasing order of efficacy
same,growth of wildtype colon organoids,wildtype colon organoids,potently permits the growth; also recorded: general improvement in growth; also recorded: more potent than SAR502250
same,growth of organoids that harbor an APC mutation,[2],inhibited the growth
same,susceptibility of human colon cancer organoids,[3],showed susceptibility
same,combination effect with a Wnt agonist on tumor organoid growth,[4]; LY2090314 combined with RSPO1,synergistic effect
same,cell killing or tumor inhibition effect together with 5-FU,colon cancer organoids,additive
same,solubility,[5],31 mg/mL and 60.48 mM
same,induction of Axin2,β-catenin,induction of Axin2
same,stabilization of β-catenin total protein,β-catenin,time-dependent stabilization
same,fold selectivity relative to a large panel of kinases,GSK3,highly selective towards GSK3
same,activity in cell lines resistant to PLX4032,melanoma cell lines,remains active
same,apoptotic cell death,melanoma cell lines; irrespective of BRAF mutation status,potently induces apoptotic cell death
same,half-life,[6],approximately 0.4 hours
same,half-life,[7],~0.7 h
same,half-life,[8],1.8 to 3.4 h
same,clearance,[9]; approximating hepatic blood flow,high clearance
same,volume of distribution,[9]; in vivo,1 to 2 L/kg
same,Axin2 gene expression in vivo,A375 xenograft,elevates Axin2 gene expression
same,single agent activity in the A375 xenograft model,A375 xenograft,demonstrates single agent activity
same,effect on efficacy of DTIC,A375 xenograft; with DTIC,enhances the efficacy of DTIC
Cn1c(N2CCO[C@@H](c3ccc(F)cc3)C2)nc(-c2ccncn2)cc1=O [SAR502250],ranking by on-target vs off-target function in organoids,wildtype colon organoids,best drugs in decreasing order of efficacy
same,growth of wildtype colon organoids,wildtype colon organoids,capacity to grow normal wildtype organoids; also recorded: can independently permit wildtype organoid growth
same,inhibition of AKPVT colon cancer organoid growth,[4],more modest inhibition than LY2090314
same,"Wnt response, TOP-TdTomato reporter activity",Wnt signaling,promote a Wnt response
"RSPO1: concentrated RSPO1, a Wnt agonist (protein, UniProt Q2MKA7 21-263, looked up) R-spondin-1: SRGIKGKRQRRISAEGSQACAKGCELCSEVNGCLKCSPKLFILLERNDIRQVGVCLPSCPPGYFDARNPDMNKCIKCKIEHCEACFSHNFCTKCKEGLYLHKGRCYPACPEGSSAANGTMECSSPAQCEMSEWSPWGPCSKKQQLCGFRRGSEERTRRVLHAPVGDHAACSDTKETRRCTVRRVPCPEGQKRRKGGQGRRENANRNLARKESKEAGAGSRRRKGQQQQQQQGTVGPLTSAGPA",reduction in viability of colon cancer organoids,[4]; RSPO1 in the presence of low nanomolar LY2090314,more than 40%
same,inhibition of AKPVT colon cancer organoid growth,[4],modest effect
